From article PMC12186844 (ACS Chemical Neuroscience, 2025)
Positions count from the first letter of the chain named.

Experiments:
D2LR [1] = target: T1, D2LR (Homo sapiens, UniProt P14416); test: inhibition of forskolin-stimulated cAMP production, BRET biosensor; type: cell-based;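 further: Flp-In-CHO cells stably expressing CAMYEL cAMP BRET sensor, agonist plus 10 µM forskolin, net BRET after forskolin-vehicle subtraction, parameters from complete operational model of allosterism and agonism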
Description: (§1) Flp-In-CHO cells stably coexpressing the CAMYEL biosensor and DRs were plated into white 96-well CulturPlates (Revvity) and grown overnight. The cells were equilibrated in Hank’s balanced salt solution (HBSS) at 37 °C (or 25 °C when indicated) before starting the experiment. The cells were costimulated with the agonists and 10 μM forskolin for the indicated time frames when the BRET readings were captured. Coelenterazine (Nanolight Technology, AZ) was added at a final concentration of 5 μM at least 3 min prior to measurement. […] Net BRET was determined by subtraction of the vehicle control coadded with 10 μM forskolin.
(§2) Dose–response curves were fitted using the following three-parameter equation: response=bottom+top−bottom/1+10^(logEC50−log[A]) 5 where top and bottom represent the maximal and minimal asymptote of the dose response curve, [A] is the molar concentration of the agonist, and EC50 is the molar concentration of the agonist required to give a response half-way between bottom and top.

D2LR [2] = target: T1, D2LR; test: cell membrane [3H]raclopride binding assay; conditions: for Logα_DA / α′_DA: cooperativity with DA
SNAP-D2SR L76^2.46A = SNAP-D2SR L76^2.46A (Homo sapiens, UniProt P14416, L76A); test: functional cAMP assay, BRET biosensor; type: cell-based
Description: as §1, §2

SNAP-D2SR I128^3.46A = target: T2, SNAP-D2SR I128^3.46A (Homo sapiens, UniProt P14416, I128A); test: functional cAMP assay, BRET biosensor; type: cell-based
T2 sequence (P14416 1-414 isoform P14416-2 I128A): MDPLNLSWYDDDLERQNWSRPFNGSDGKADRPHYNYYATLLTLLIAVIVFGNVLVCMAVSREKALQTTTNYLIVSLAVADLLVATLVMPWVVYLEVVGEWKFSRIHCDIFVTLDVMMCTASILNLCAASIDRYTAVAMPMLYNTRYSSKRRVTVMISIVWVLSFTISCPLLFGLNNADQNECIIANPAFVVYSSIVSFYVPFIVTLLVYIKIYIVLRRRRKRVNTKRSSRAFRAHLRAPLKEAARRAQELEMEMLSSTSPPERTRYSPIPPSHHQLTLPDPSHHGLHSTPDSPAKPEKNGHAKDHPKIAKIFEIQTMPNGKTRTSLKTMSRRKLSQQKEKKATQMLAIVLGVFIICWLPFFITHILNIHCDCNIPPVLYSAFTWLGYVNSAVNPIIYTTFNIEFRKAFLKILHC
Description: as §1, §2

SNAP-D2SR W384^7.40A = SNAP-D2SR W384^7.40A (Homo sapiens, UniProt P14416, W413A); test: functional cAMP assay, BRET biosensor; type: cell-based
Description: Flp-In-CHO cells stably coexpressing the CAMYEL biosensor and DRs were plated into white 96-well CulturPlates (Revvity) and grown overnight. The cells were equilibrated in Hank’s balanced salt solution (HBSS) at 37 °C (or 25 °C when indicated) before starting the experiment. The cells were costimulated with the agonists and 10 μM forskolin for the indicated time frames when the BRET readings were captured. Coelenterazine (Nanolight Technology, AZ) was added at a final concentration of 5 μM at least 3 min prior to measurement. […] Net BRET was determined by subtraction of the vehicle control coadded with 10 μM forskolin. For phenoxybenzamine alkylation experiments, the cells were treated with 0.1, 0.3, or 1 μM phenoxybenzamine (Sigma-Aldrich) diluted in HBSS and equilibrated at 37 °C for 30 min prior to the commencement of the assay.
as §2

SNAP-D2SR T398^7.54A = SNAP-D2SR T398^7.54A (Homo sapiens, UniProt P14416, T427A); test: cell membrane [3H]spiperone assay
Description: (§3) Flp-In-CHO cells stably expressing the wild-type or mutant DRs were grown to 90% confluence in 175 cm^2 cell culture flasks. The cells were harvested in PBS containing 2 mM EDTA and centrifuged at 300g for 3 min. The resulting pellet was resuspended in ice-cold assay buffer (20 mM HEPES, 100 mM NaCl, 6 mM MgCl2, 1 mM EGTA, and 1 mM EDTA, pH 7.4), and the centrifugation step was repeated. The intact cell pellet was then resuspended in assay buffer and homogenized using a Polytron homogenizer. After centrifugation (1000g, 10 min), the pellet was discarded, and the supernatant was recentrifuged at 30,000g for 1 h at 4 °C using a Sorvall Evolution RC ultracentrifuge (Thermo Scientific). The resulting pellet was resuspended in assay buffer and stored in 250 μL aliquots at −80 °C. Membrane protein concentration was determined using a Pierce’s BCA protein assay kit (Thermo Fisher, Melbourne).
(§4) [^3H]­Spiperone binding experiments using cell membranes were conducted in a 200 μL reaction volume in assay buffer (20 mM HEPES, 100 mM NaCl, 6 mM MgCl2, 1 mM EGTA, and 1 mM EDTA, pH 7.4) containing 100 μM GppNHp and 0.1% ascorbic acid in 96-well plates. […] In all cases, nonspecific binding was determined in the presence of 10 μM haloperidol. […] Filter bound radioactivity was detected as a chemiluminescence after the addition of MicroScint-20 (Revvity) in a MicroBeta plate counter (Revvity). […]

SNAP-D2SR F404^8.50A = SNAP-D2SR F404^8.50A (Homo sapiens, UniProt P14416, F433A); test: cell membrane [3H]spiperone assay
Description: as §3, §4

SNAP-D2SR C118^3.36A = target: T3, SNAP-D2SR C118^3.36A (Homo sapiens, UniProt P14416, C118A); test: cell membrane [3H]spiperone assay
T3 sequence (P14416 1-414 isoform P14416-2 C118A): T2 sequence (P14416 1-414 isoform P14416-2 I128A) with C118A, A128I
Description: as §3, §4

D3R = D3R (Homo sapiens, UniProt P35462); test: cell membrane [3H]raclopride binding assay
Description: as §3
[^3H]­Spiperone binding experiments using cell membranes were conducted in a 200 μL reaction volume in assay buffer (20 mM HEPES, 100 mM NaCl, 6 mM MgCl2, 1 mM EGTA, and 1 mM EDTA, pH 7.4) containing 100 μM GppNHp and 0.1% ascorbic acid in 96-well plates. […] In all cases, nonspecific binding was determined in the presence of 10 μM haloperidol. To obtain affinity estimates of unlabeled agonists, competition binding experiments were performed at equilibrium. […] After this incubation period, bound and free radioligands were separated by fast-flow filtration through UniFilter-96 GF/B plates using a MicroBeta FilterMate harvester (Revvity) followed by three washes with ice-cold 0.9% NaCl. Filter bound radioactivity was detected as a chemiluminescence after the addition of MicroScint-20 (Revvity) in a MicroBeta plate counter (Revvity).

[3] = with S-(3)-PPP, listed as D2 PAM
[4] = +0.1 mM GppNHp, cooperativity with [3H]raclopride
[5] = +PTX, cooperativity with [3H]raclopride
[6] = +urea, cooperativity with [3H]raclopride
[7] = read-out: D2 PAM2 KB (converted)

D3R, sequence (P35462 whole entry): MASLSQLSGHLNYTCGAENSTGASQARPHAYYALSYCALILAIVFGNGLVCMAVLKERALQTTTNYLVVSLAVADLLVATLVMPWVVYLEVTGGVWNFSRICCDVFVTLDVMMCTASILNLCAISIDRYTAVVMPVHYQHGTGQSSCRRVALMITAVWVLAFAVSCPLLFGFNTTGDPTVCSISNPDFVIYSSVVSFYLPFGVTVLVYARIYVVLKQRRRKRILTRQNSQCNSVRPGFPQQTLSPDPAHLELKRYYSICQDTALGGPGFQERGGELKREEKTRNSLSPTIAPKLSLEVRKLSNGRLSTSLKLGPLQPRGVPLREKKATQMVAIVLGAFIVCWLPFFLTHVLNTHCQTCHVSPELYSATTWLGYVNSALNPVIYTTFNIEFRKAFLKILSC
SNAP-D2SR L76^2.46A, sequence (P14416 1-414 isoform P14416-2 L76A): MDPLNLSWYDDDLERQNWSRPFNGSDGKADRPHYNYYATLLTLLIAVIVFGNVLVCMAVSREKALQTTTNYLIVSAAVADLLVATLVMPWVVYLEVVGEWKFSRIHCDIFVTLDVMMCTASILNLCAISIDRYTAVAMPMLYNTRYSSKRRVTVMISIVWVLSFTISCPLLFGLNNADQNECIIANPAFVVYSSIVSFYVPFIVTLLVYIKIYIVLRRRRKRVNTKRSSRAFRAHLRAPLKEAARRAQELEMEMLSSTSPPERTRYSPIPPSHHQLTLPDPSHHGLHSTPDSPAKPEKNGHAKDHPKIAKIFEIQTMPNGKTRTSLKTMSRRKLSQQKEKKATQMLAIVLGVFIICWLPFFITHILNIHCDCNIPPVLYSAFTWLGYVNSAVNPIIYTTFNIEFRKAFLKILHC
SNAP-D2SR W384^7.40A, sequence (P14416 1-414 isoform P14416-2 W384A): as the sequence (P14416 1-414 isoform P14416-2 L76A) above, with A76L, W384A counted along it
T1 sequence (P14416 whole entry): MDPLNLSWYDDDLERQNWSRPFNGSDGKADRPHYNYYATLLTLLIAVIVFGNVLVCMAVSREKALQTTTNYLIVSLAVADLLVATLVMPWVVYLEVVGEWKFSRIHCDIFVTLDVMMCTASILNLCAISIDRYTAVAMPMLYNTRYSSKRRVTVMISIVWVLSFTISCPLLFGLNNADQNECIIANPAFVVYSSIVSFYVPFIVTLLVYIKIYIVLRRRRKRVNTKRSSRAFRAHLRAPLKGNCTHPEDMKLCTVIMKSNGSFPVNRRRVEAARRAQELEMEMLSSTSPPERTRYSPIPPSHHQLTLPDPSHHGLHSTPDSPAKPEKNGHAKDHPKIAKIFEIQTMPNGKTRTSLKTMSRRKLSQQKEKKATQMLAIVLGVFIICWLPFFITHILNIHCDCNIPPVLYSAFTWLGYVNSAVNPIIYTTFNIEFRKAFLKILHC
SNAP-D2SR F404^8.50A, sequence (P14416 1-414 isoform P14416-2 F404A): as the sequence (P14416 1-414 isoform P14416-2 L76A) above, with A76L, F404A counted along it
SNAP-D2SR T398^7.54A, sequence (P14416 1-414 isoform P14416-2 T398A): as the sequence (P14416 1-414 isoform P14416-2 L76A) above, with A76L, T398A counted along it

With `COc1cc(CO)c(F)cc1C(=O)n1ccc2c(F)cccc21` [D2 PAM2, [5-fluoro-4-(hydroxymethyl)-2-methoxyphenyl]-(4-fluoro-1H-indol-1-yl)methanone] the “agonism, fold lower than that of aripiprazole” value (D2LR [1]; D2 PAM2 alone, high D2R expression levels) was “approximately 2 fold”, the pKB (D2LR [1]; cAMP) was 5.37 ± 0.04 and the LogτB (D2LR [1]; cAMP, intrinsic efficacy) was -0.96 ± 0.04. The Logαβ (D2LR [1]; cAMP, with dopamine) was 1.41 ± 0.04, the Kb (D2LR [1]; operational model of allostery, with DA) was 5.5 µM and the Logαβ (D2LR [1]; with S-(3)-PPP) was 1.46 ± 0.16. For the same molecule, the Logβ (D2LR [1]; with S-(3)-PPP) was 1.06, the β (D2LR [1]; with S-(3)-PPP) was 11.5 and the αβ (D2LR [1]; [3]) was 28. The β (D2LR [1]; [3]) was 11, the Logαβ (D2LR [1]; with apomorphine) was 1.21 ± 0.13 and the Logβ (D2LR [1]; with apomorphine) was 0.16. It also gave a αβ (D2LR [1]; with apomorphine) of 16, a β (D2LR [1]; with apomorphine) of 1.4 and a Logαβ (D2LR [1]; with aripiprazole) of 1.61 ± 0.14. It also gave a Logβ (D2LR [1]; with aripiprazole) of 1.18, a αβ (D2LR [1]; with aripiprazole) of 41 and a β (D2LR [1]; with aripiprazole) of 15. For the same molecule, the Logαβ (D2LR [1]; with bromocriptine) was 0.76 ± 0.13, the Logβ (D2LR [1]; with bromocriptine) was 0.49 and the αβ (D2LR [1]; with bromocriptine) was 5.8. The β (D2LR [1]; with bromocriptine) was 3.1, the Logαβ (D2LR [1]; with dopamine) was 1.35 ± 0.10 and the Logβ (D2LR [1]; with dopamine) was 0.02. It also gave a αβ (D2LR [1]; with dopamine) of 22, a β (D2LR [1]; with dopamine) of 1 and a β (D2LR [1]; with dopamine, listed as D2 PAM) of 1.0. It also gave a Logαβ (D2LR [1]; with lisuride) of 0.66 ± 0.06, a Logβ (D2LR [1]; with lisuride) of 0.11 and a αβ (D2LR [1]; with lisuride) of 4.6. The β (D2LR [1]; with lisuride) was 1.3, the Logαβ (D2LR [1]; with pergolide) was 1.50 ± 0.15 and the Logβ (D2LR [1]; with pergolide) was 0.26. The αβ (D2LR [1]; with pergolide) was 32, the β (D2LR [1]; with pergolide) was 1.8 and the Logαβ (D2LR [1]; with pramipexole) was 1.37 ± 0.12. It also gave a Logβ (D2LR [1]; with pramipexole) of 0.16, a αβ (D2LR [1]; with pramipexole) of 23 and a β (D2LR [1]; with pramipexole) of 1.4. It also gave a Logαβ (D2LR [1]; with ropirinole) of 1.67 ± 0.12, a Logβ (D2LR [1]; with ropirinole) of 0.53 and a αβ (D2LR [1]; with ropirinole) of 47. The β (D2LR [1]; with ropirinole) was 3.4, the Logαβ (D2LR [1]; with rotigotine) was 1.17 ± 0.09 and the Logβ (D2LR [1]; with rotigotine) was -0.20. The αβ (D2LR [1]; with rotigotine) was 15, the β (D2LR [1]; with rotigotine) was 0.6 and the “fold lower affinity in cell membranes than in whole cell binding” value (D2LR [2]) was 4 fold. For the same molecule, the “pKB_D2 PAM” value (D2LR [2]; +0.1 mM GppNHp) was 4.65 ± 0.05, the Logα_DA (D2LR [2]; +0.1 mM GppNHp) was 1.30 ± 0.02 and the “α′_DA” value (D2LR [2]; +0.1 mM GppNHp) was 20. The “Logα_[3H]raclo” value (D2LR [2]; [4]) was “–0.19 ± 0.05”, the “α_[3H]raclo” value (D2LR [2]; [4]) was 0.65 and the Kb (D2LR [2]; +0.1 mM GppNHp, read-out: KB_D2 PAM (converted)) was 22.5 µM. For the same molecule, the “pKB_D2 PAM” value (D2LR [2]; +PTX) was 4.54 ± 0.03, the Logα_DA (D2LR [2]; +PTX) was 1.22 ± 0.07 and the “α′_DA” value (D2LR [2]; +PTX) was 17. The “Logα_[3H]raclo” value (D2LR [2]; [5]) was “–0.37 ± 0.10”, the “α_[3H]raclo” value (D2LR [2]; [5]) was 0.42 and the Kb (D2LR [2]; +PTX, read-out: KB_D2 PAM (converted)) was 29 µM. For the same molecule, the “pKB_D2 PAM” value (D2LR [2]; +urea) was 4.53 ± 0.15, the Logα_DA (D2LR [2]; +urea) was 1.35 ± 0.12 and the “α′_DA” value (D2LR [2]; +urea) was 22. For the same molecule, the “Logα_[3H]raclo” value (D2LR [2]; [6]) was “–0.06 ± 0.08”, the “α_[3H]raclo” value (D2LR [2]; [6]) was 0.87 and the Kb (D2LR [2]; +urea, read-out: KB_D2 PAM (converted)) was 30 µM. The logα_DA (D2LR [2]; D2LR) was 1.30 ± 0.02, the “logα_[3H]raclo” value (D2LR [2]; D2LR) was -0.19 ± 0.05 and the α_DA (D2LR [2]; D2LR) was 20. For the same molecule, the “α_[3H]raclo” value (D2LR [2]; D2LR) was 0.64, the Kb (D2LR [2]; cell membrane preparations, read-out: KB) was 22 µM and the “D2 PAM2 log τ” value (SNAP-D2SR L76^2.46A) was “–3”. The “D2 PAM2 pKB” value (SNAP-D2SR L76^2.46A) was 5.52 ± 0.31, the “fold decrease in cooperativity between D2 PAM2 and DA” value (SNAP-D2SR L76^2.46A) was 5 fold and the Kb (SNAP-D2SR L76^2.46A; [7]) was 3 µM. The “D2 PAM2 log αβ” value (SNAP-D2SR L76^2.46A; with DA) was 0.56 ± 0.09, the “D2 PAM2 αβ” value (SNAP-D2SR L76^2.46A; with DA) was 3.6 and the “D2 PAM2 log τ” value (SNAP-D2SR I128^3.46A) was “–3”. For the same molecule, the “D2 PAM2 pKB” value (SNAP-D2SR I128^3.46A) was 4.90 ± 0.18, the Kb (SNAP-D2SR I128^3.46A; [7]) was 13 µM and the “D2 PAM2 log αβ” value (SNAP-D2SR I128^3.46A; with DA) was 1.63 ± 0.17. For the same molecule, the “D2 PAM2 αβ” value (SNAP-D2SR I128^3.46A; with DA) was 43, the Kb (SNAP-D2SR W384^7.40A) was 13.8 µM and the Logτ (SNAP-D2SR W384^7.40A) was -0.24 ± 0.08. It also gave a pKB (SNAP-D2SR W384^7.40A) of 4.86 ± 0.24, a τ (SNAP-D2SR W384^7.40A) of 0.57 and a Logαβ (SNAP-D2SR W384^7.40A; with DA) of 1.04 ± 0.15. For the same molecule, the αβ (SNAP-D2SR W384^7.40A; with DA) was 11.0, the “fold shift + 10 μM PAM” value (SNAP-D2SR T398^7.54A; shift of DA IC50) was 1 fold and the “ΔpIC50 + 10 μM PAM” value (SNAP-D2SR T398^7.54A; shift of DA pIC50) was “–0.01 ± 0.05”. For the same molecule, the “fold shift + 10 μM PAM” value (SNAP-D2SR F404^8.50A; shift of DA IC50) was 1.5 fold, the “ΔpIC50 + 10 μM PAM” value (SNAP-D2SR F404^8.50A; shift of DA pIC50) was 0.19 ± 0.18 and the “fold shift + 10 μM PAM” value (SNAP-D2SR C118^3.36A; shift of DA IC50) was 2 fold. The “ΔpIC50 + 10 μM PAM” value (SNAP-D2SR C118^3.36A; shift of DA pIC50) was 0.31 ± 0.10, the Kb (D3R) was 17 µM and the logα_DA (D3R) was 0.98 ± 0.02. For the same molecule, the “logα_[3H]raclo” value (D3R) was -0.14 ± 0.04, the pKB (D3R) was 4.77 ± 0.14 and the α_DA (D3R) was 9.5. For the same molecule, the “α_[3H]raclo” value (D3R) was 0.72.
